Test results from US20220054432A1, “COMPOSITION FOR INCREASING RETENTION OF CAROTENOID IN BLOOD” (ENEOS Corporation, priority 2018, published 2022).

What was measured:
[1] = Transfer into each organ: carotenoid concentration in organs of mice (Test Example 1); type: in vivo, ICR strain mice; details: 50 mg/kg orally once daily for 10 days; for concentration at 10 days: ICR, mouse, po, after last administration, mean
Source text: Adonixanthin was used as an asymmetric carotenoid, and astaxanthin was used as a symmetric carotenoid. As experimental animals, ICR strain mice were used. Fourteen (14) mice were used, and 4 mice each were assigned to the adonixanthin-administration group and the astaxanthin-administration group, and 6 mice were assigned to the control administration group. In grouping, each group was constituted so that the mean body weight in each group was as uniform as possible based on the body weight on the day before initiation of administration.
To each experimental group, each of adonixanthin, astaxanthin, and olive oil (product number 150-00276, manufactured by Wako Pure Chemical Industries, Ltd.) was orally administered. In the adonixanthin-administration group and the astaxanthin-administration group, adonixanthin and astaxanthin at a volume of 50 mg/kg body weight were orally administered once daily for 10 days (the day of initiation of administration of the dosing substances was defined as day 1) using a flexible stomach tube. In the control administration group, olive oil at a volume of 0.05 mL/kg body weight was orally administered once daily for 10 days using a flexible stomach tube.
During the administration period, the mice were fed ad libitum a pellet (CE-2, manufactured by CLEA Japan, Inc.) and tap water, and maintained on a 12-h light/dark cycle, at 23±3° C., with a relative humidity of 50±20%.
After blood collection after the last administration, the whole body was perfused with a heparinized lactated Ringer's solution under isoflurane anesthesia, followed by collection of the retina, the heart, the lung, the spleen, the liver, and the kidney. The collected organs were immediately frozen with liquid nitrogen, and were stored at −80° C.
(§1) Each of the concentration of adonixanthin in each organ collected from the adonixanthin-administration group (concentration relative to the weight of each organ) and the concentration of astaxanthin in each organ collected from the astaxanthin-administration group (concentration relative to the weight of each organ) was measured. Specifically, each organ was homogenized, and extraction was repeated with acetone until no color occurred. Then, filtration through a filter was performed to evaporate acetone, and diethyl ether:hexane (2:8, v/v) was added to the solution to extract a carotenoid. Furthermore, evaporation to dryness was performed, and the residue was dissolved in acetone:hexane (2:8, v/v) and subjected to HPLC. As the HPLC device, a Hitachi L-6000 intelligent pump and an L-4250 UV-VIS detector were used. The measurement wavelength was 450 nm, and a column of 5 μm Cosmosil 5SL-II (inner diameter of 250×4.6 mm) (manufactured by Nacalai Tesque, Inc.) was used. As the mobile phase, acetone:hexane (2:8, v/v) was used, and measurement was performed at a flow rate of 1.0 mL/min.
In HPLC, the concentration of astaxanthin was measured as a concentration of each of the cis isomer and the trans isomer.
Each of the concentration of adonixanthin in each organ collected from the adonixanthin-administration group and the concentration of astaxanthin in each organ collected from the astaxanthin-administration group is shown in Table 1. The measured value was expressed as mean. From each organ collected from the control administration group, neither adonixanthin nor astaxanthin were detected.

[2] = Transfer into each organ: carotenoid concentration in organs of cynomolgus monkeys (Test Example 3); type: in vivo; details: cynomolgus monkey
Protocol: As experimental animals, cynomolgus monkeys were used. Two cynomolgus monkeys were used, and an adonixanthin dosing solution was administered to one monkey (adonixanthin-administering monkey), while an astaxanthin dosing solution was administered to the other monkey (astaxanthin-administering monkey). As the dosing solutions, the dosing solutions obtained in Preparation Example 2 were used, and the dosing solutions at a dose such that the dose of adonixanthin or astaxanthin was 50 mg/kg body weight were administered once daily for 10 days (the day of initiation of administration of the dosing solutions was defined as day 1). As the administration method, a disposable catheter was inserted from the nasal cavity into the stomach, and the dosing solutions were injected into the stomach using a syringe. When the dosing solutions were collected into a syringe, the dosing solutions were collected while being stirred with a stirrer. The dose in each administration was calculated based on the latest body weight at each administration time point (the body weight was measured on the day of initiation of acclimation, the day of end of acclimation, the day of initiation of administration, and before administration on day 8 of administration using an electric balance (HP-40K or GP-40K, both of which are manufactured by A&D Company, Limited)). The administration time was 8:30 to 13:30.
During the administration period of the dosing solution, each cynomolgus monkey was fed about 108 g (about 12 g×9 pieces) of a pellet once daily at 14:00 to 16:00, and the feed remained by the feeding on the next day (for the day of administration, before administration) was recovered. Each cynomolgus monkey was fed tap water at libitum, and maintained on a 12-h light/dark cycle, at […], with a relative humidity of 50±20%.
After blood collection after the last administration of the dosing solutions, an aqueous solution of pentobarbital sodium (manufactured by Tokyo Chemical Industry Co., Ltd.) (64.8 mg/mL) was administered into the cephalic vein at a volume of 0.4 mL/kg body weight to perform anesthesia. After the body weight was measured, each cynomolgus monkey was euthanized by exsanguination, and the brain (cerebral cortex, cerebral medulla, cerebellum, midbrain, striatum putamen, striatum caudate nucleus, hippocampus, medulla oblongata, diencephalon), the heart, the spleen, the liver, the kidneys (right and left), and the retina were collected. Each organ thus collected was stored in a deep freezer (−70° C. or lower).
as §1, with “adonixanthin-administering monkey” for “adonixanthin-administration group”, “astaxanthin-administering monkey” for “astaxanthin-administration group”
Each of the concentration of adonixanthin in each organ collected from the adonixanthin-administering monkey and the concentration of astaxanthin in each organ collected from the astaxanthin-administering monkey is shown in Table 2.

[3] = heart, read-out: Concentration in organ: Heart
[4] = kidney, read-out: Concentration in organ: Kidney
[5] = liver, read-out: Concentration in organ: Liver
[6] = lung, read-out: Concentration in organ: Lung
[7] = spleen, read-out: Concentration in organ: Spleen

SMILES: CC1=C(/C=C/C(C)=C/C=C/C(C)=C/C=C/C=C(C)/C=C/C=C(C)/C=C/C2=C(C)C(=O)C(O)CC2(C)C)C(C)(C)CC(O)C1=O (stereo not drawn) [astaxanthin, 3,3′-dihydroxy-β,β-carotene-4,4′-dione]
- Transfer into and retention in each organ (summary of Table 1) [1]: exist in each organ at a high concentration
- concentration at 10 days [1, 3]: 124 ng/g
- concentration at 10 days [1, 4]: 84.6 ng/g
- concentration at 10 days [1, 5]: 109 ng/g
- concentration at 10 days [1, 6]: 106 ng/g
- concentration at 10 days [1, 7]: 87.8 ng/g
- Transfer into and retention in each organ (summary of Table 2) ([2]; in vivo, 50 mg/kg): exist in each organ at a high concentration
- concentration at 10 days ([2]; in vivo, 50 mg/kg, Concentration in organ: Brain, Cerebellum): 14.4 ng/g
- concentration at 10 days ([2]; in vivo, 50 mg/kg, Concentration in organ: Brain, Cerebral cortex): 4.8 ng/g
- concentration at 10 days ([2]; in vivo, 50 mg/kg, Concentration in organ: Brain, Cerebral medulla): 8.3 ng/g
- concentration at 10 days ([2]; in vivo, 50 mg/kg, Concentration in organ: Brain, Diencephalon): 5.2 ng/g
- concentration at 10 days ([2]; in vivo, 50 mg/kg, Concentration in organ: Brain, Hippocampus): 7.1 ng/g
- concentration at 10 days ([2]; in vivo, 50 mg/kg, Concentration in organ: Brain, Medulla oblongata): 8.3 ng/g
- concentration at 10 days ([2]; in vivo, 50 mg/kg, Concentration in organ: Brain, Midbrain): 2.9 ng/g
- concentration at 10 days ([2]; in vivo, 50 mg/kg, Concentration in organ: Brain, Striatum Caudate nucleus): 10.2 ng/g
- concentration at 10 days ([2]; in vivo, 50 mg/kg, Concentration in organ: Brain, Striatum Putamen): 5 ng/g
- concentration at 10 days ([2]; in vivo, 50 mg/kg, Concentration in organ: Heart): 15.7 ng/g
- concentration at 10 days ([2]; in vivo, 50 mg/kg, Concentration in organ: Kidney (left)): 228 ng/g
- concentration at 10 days ([2]; in vivo, 50 mg/kg, Concentration in organ: Kidney (right)): 231 ng/g
- concentration at 10 days ([2]; in vivo, 50 mg/kg, Concentration in organ: Liver): 37.8 ng/g
- concentration at 10 days ([2]; in vivo, 50 mg/kg, Concentration in organ: Retina): 24.4 ng/g
- concentration at 10 days ([2]; in vivo, 50 mg/kg, Concentration in organ: Spleen): 88.8 ng/g

SMILES: CC1=C(/C=C/C(C)=C/C=C/C(C)=C/C=C/C=C(C)/C=C/C=C(C)/C=C/C2=C(C)C(=O)C(O)CC2(C)C)C(C)(C)CC(O)C1 (stereo not drawn) [adonixanthin, 3,3′-dihydroxy-β,β-caroten-4-one]
- Transfer into and retention in each organ (summary of Table 1) [1]: especially likely to be transferred into each organ and retained therein
- concentration at 10 days [1, 3]: 141 ng/g
- concentration at 10 days [1, 4]: 774 ng/g
- concentration at 10 days [1, 5]: 1930 ng/g
- concentration at 10 days [1, 6]: 1940 ng/g
- concentration at 10 days [1, 7]: 277 ng/g
- Transfer into and retention in each organ (summary of Table 2) ([2]; 50 mg/kg intragastric once daily for 10 days): especially likely to be transferred into each organ and retained therein
- concentration at 10 days ([2]; brain, cerebellum, oral, 50 mg/kg, 50 mg/kg intragastric once daily for 10 days, after last administration, read-out: Concentration in organ: Brain, Cerebellum): 57.5 ng/g
- concentration at 10 days ([2]; brain, cerebral cortex, oral, 50 mg/kg, 50 mg/kg intragastric once daily for 10 days, after last administration, read-out: Concentration in organ: Brain, Cerebral cortex): 48.9 ng/g
- concentration at 10 days ([2]; brain, cerebral medulla, oral, 50 mg/kg, 50 mg/kg intragastric once daily for 10 days, after last administration, read-out: Concentration in organ: Brain, Cerebral medulla): 53.2 ng/g
- concentration at 10 days ([2]; brain, diencephalon, oral, 50 mg/kg, 50 mg/kg intragastric once daily for 10 days, after last administration, read-out: Concentration in organ: Brain, Diencephalon): 77.1 ng/g
- concentration at 10 days ([2]; brain, hippocampus, oral, 50 mg/kg, 50 mg/kg intragastric once daily for 10 days, after last administration, read-out: Concentration in organ: Brain, Hippocampus): 64 ng/g
- concentration at 10 days ([2]; brain, medulla oblongata, oral, 50 mg/kg, 50 mg/kg intragastric once daily for 10 days, after last administration, read-out: Concentration in organ: Brain, Medulla oblongata): 27.6 ng/g
- concentration at 10 days ([2]; brain, midbrain, oral, 50 mg/kg, 50 mg/kg intragastric once daily for 10 days, after last administration, read-out: Concentration in organ: Brain, Midbrain): 7.4 ng/g
- concentration at 10 days ([2]; brain, striatum caudate nucleus, oral, 50 mg/kg, 50 mg/kg intragastric once daily for 10 days, after last administration, read-out: Concentration in organ: Brain, Striatum Caudate nucleus): 59.8 ng/g
- concentration at 10 days ([2]; brain, striatum putamen, oral, 50 mg/kg, 50 mg/kg intragastric once daily for 10 days, after last administration, read-out: Concentration in organ: Brain, Striatum Putamen): 42.1 ng/g
- concentration at 10 days ([2]; heart, oral, 50 mg/kg, 50 mg/kg intragastric once daily for 10 days, after last administration, read-out: Concentration in organ: Heart): 305 ng/g
- concentration at 10 days ([2]; kidney (left), oral, 50 mg/kg, 50 mg/kg intragastric once daily for 10 days, after last administration, read-out: Concentration in organ: Kidney (left)): 1600 ng/g
- concentration at 10 days ([2]; kidney (right), oral, 50 mg/kg, 50 mg/kg intragastric once daily for 10 days, after last administration, read-out: Concentration in organ: Kidney (right)): 1530 ng/g
- concentration at 10 days ([2]; liver, oral, 50 mg/kg, 50 mg/kg intragastric once daily for 10 days, after last administration, read-out: Concentration in organ: Liver): 1120 ng/g
- concentration at 10 days ([2]; retina, oral, 50 mg/kg, 50 mg/kg intragastric once daily for 10 days, after last administration, read-out: Concentration in organ: Retina): 689 ng/g
- concentration at 10 days ([2]; spleen, oral, 50 mg/kg, 50 mg/kg intragastric once daily for 10 days, after last administration, read-out: Concentration in organ: Spleen): 5280 ng/g
